Measurements from US9360471B2, “Anti-aging agents and methods to identify them” (priority 2009, dated 2016).
“And” between values parts separate entries of the source, which are not always exact repeats. Identical values can stand only once.

Legend:
[1] = system: human lymphoblastoid L40; assay: mitochondrial mass in human lymphoblastoid L40, MitoTracker Green FM and FACS; format: cell-based; conditions: for mitochondrial mass: 2-day treatment, 10 μM LY294002, 2 μM DATS, 1 μM BITC, 1 μM PITC, 2 μg/mL resveratrol, 0.03 μM lycopene, 6.7 μM PEITC, 5 mM silibinin, 1.25 mM selenite, 2.5 mM genistein, 250 μg/mL GSE, 50 μg/mL EGCG, 3 mg/mL bilberry extract, 1 μM AITC, 50 pM rapamycin, 250 μM AICAR
From the text: Mitochondrial mass was monitored by staining the 60% Ethanol-fixed cells with MitoTracker Green FM prior to FACS analysis.

[2] = system: marine models; conditions: marine models (Calvert 2008); cited from earlier work
[3] = system: NIH3T3 cells; assay: mitochondrial mass in NIH3T3 cells treated with TPA; format: cell-based, mouse; conditions: 10 μM TPA, two days
Experimental: NIH3T3 cells were incubated in DMEM medium (DMEM with 10% FCS, 100 units/mL penicillin, 100 μg/mL streptomycin and 2 mM glutamine) in the presence of control DMSO, 10 μM TPA, 1 nM rapamycin, 10 μM TPA+1 nM rapamycin, 40 μM AICAR, or 10 μM TPA+40 μM AICAR at 37° C. in a humidified atmosphere consisting of 95% air and 5% CO2 for two days. Cells were then harvested by trypsin and fixed by 60% ethanol. The cells were stained with MitoTracker Greeen FM in darkness for 30 min prior to FACS analysis. The data represents the average of a triplica-experiment.

[4] = system: cdc13-1 cells; assay: cdc13-1 cell survival after cdc13-1p inactivation, colony formation assay; format: cell-based, budding yeast; conditions: for cell death triggered by inactivation of cdc13-1p (colony formation assay): 37° C. about 30 hrs, 6.7 μM PEITC, 5 mM silibinin, 1.25 mM selenite, 2.5 mM genistein, 250 μg/mL GSE, 50 μg/mL EGCG, 3 mg/mL bilberry extract
Experimental: To induce telomere dysfunction, fresh overnight cultures of cdc13-1 were diluted into YEPD medium with the indicated concentrations of glucose or 2-deoxyglucose and incubated at 37° C. for 24 hrs. For colony formation assay, treated cells were then serially diluted 10-fold in H2O and 5 μL was spotted onto regular YEPD plates. The plates were incubated at 24° C. for survived cells to form colonies. The starting number of live-cells was also counted by this colony formation assay. (B) Nitrogen restriction inhibits cell death induced by cdc13-1p inactivation as monitored by a colony formation assay. Cells were incubated in synthetic medium (SC) or SC—N (SC without amino acids and (NH4)2SO4 as nitrogen sources) at 37° C. for 24 hrs. The number of survived cells was counted using colony formation assay as described in 1A. (C-D) Inhibition of TOR by low doses of rapamycin (labeled as Rapa) (below growth inhibition concentration) can prevent cell death induced by cdc13-1p inactivation. Cells were incubated with the indicated concentrations of rapamycin in YEPD medium at 37° C. for 24 hrs. The number of survived cells was measured by the colony formation assay as in 1A. For growth curve, fresh overnight culture was diluted into YEPD medium and incubated at 24° C. in the presence of the indicated concentrations of rapamycin. Cell Density (OD595) was measured at the indicated time points and plotted against the time. (E) Deterioration of growth arrested cdc13-1 cells can be delayed by low dose of rapamycin (1 nM) and glucose restriction (0.5%) as measured by counting surviving cells using the colony formation assay. The data represent an average of three experiments.
(§1) (A) Cells were incubated at 37° C. to inactivated cdc13-1p, in YEPD medium, YEPD+1 nM rapamycin or YEPD with 0.5% glucose. At the indicated time points, an aliquot of cells was taken out and fixed with 50% ethanol at −20° C. for about 4 hrs, and then digested with 0.2 mg/mL RNase A in 50 mM Tris pH 7.6 at 37° C. overnight. The cells were next washed with 50 mM Tris pH 7.6 and treated with 40 μg/mL proteinase K at 55° C. for 2 hrs. After being washed again, cells were stained with 100 μg/mL propidium iodide for 20 min in the dark prior to FACS (Fluorescence activated cell sorter) analysis. […] Cells were incubated at 37° C. for 2 hours first, then diluted with a 37° C.-YEPD medium, YEPD with rapamycin to make a final concentration of 1 nM, or with a 37° C.-medium without glucose to make final 0.5% glucose. The cells were continuously incubated at 37° C. for 22 hrs. Surviving cells were counted using the colony formation assay.
The 6.7 μM PEITC, 5 mM silibinin, 1.25 mM selenite, 2.5 mM genistein, 250 μg/mL grape seed extract (GSE), 50 μg/mL EGCG, and 3 mg/mL bilberry extract (BE) were incubated with cells at 37° C. for about 30 hrs. The cell survival was measured by the colony formation assay at a permissive temperature 24° C.
In addition, limitation of nitrogen by SC—N medium (containing 0.67% yeast nitrogen base in absence of amino acids and (NH4)2SO4, 2% glucose, plus a mixture of 100 mg/L each of histidine, leucine, tryptophan and uracil for this yeast strain) prevented the cell death (FIG. 1B). […] After 60 hrs of incubation at 37° C., cell survival was at least 100-fold more than those without treatment.

[5] = system: senescent WI-38 cells (human primary fibroblast); assay: loss of senescent WI-38 cells, β-galactosidase (X-gal) staining; format: cell-based; conditions: 56 days in senescence; 50 pM rapamycin, 250 μM AICAR, 20 μg/mL EGCG, 1.6 μg/mL GSE, 20 μg/mL bilberry extract, 1 μM AITC, 12.5 μM 2-deoxyglucose; 3-day-on/7-day-off (AICAR 2-day-on/8-day-off)
Experimental: AICAR and reduced glucose treatment were incubated with cells in a 2-day-on/8-day-off cycle, while the rest of agents were in a 3-day-on/7-day-off cycle. The treatment started at passage 29. The medium was refreshed every 3 days. After 56-days from passage 31 (senescence), the cells were briefly fixed in 2% formaldehyde/0.2% glutaraldehyde and stained with 1 mg/mL 5-bromo-4-chloro-3-indolyl β-D-galactoside (X-gal) (in buffer containing 40 mM citric acid/sodium phosphate, pH 6.0, 5 mM potassium ferrocyanide, 5 mM potassium ferricyanide, 150 mM NaCl, and 2 mM MgCl2) at 37° C. for 18 hrs for the senescence marker, cellular β-galactosidase activity (blue in color picture and dark grey in black/white picture). Surviving senescent cells were viewed under a microscope.
This invention discloses that CR or rapamycin also prolongs senescence and prevents cell death induced by telomere dysfunction in human cells. Primary human embryonic lung fibroblasts WI-38 were used. […] Cells at passage 29 were treated with 50 pM rapamycin. The treatment was on a 10-day cycle of 3-day with and 7-day without rapamycin (also termed as 3-day-on/7-day-off cycle). […] Due to increased cytosol β-galactosidase activity, senescent cells are stained a blue color (shown as dark grey in black/white picture). […] Rapamycin didn't transform cells since the senescence marker was still present and cell growth was not observed.

[6] = system: cdc13-1 cells; assay: DNA content / cell cycle FACS analysis after cdc13-1p inactivation; format: cell-based, budding yeast; conditions: rapamycin 1 nM in YEPD, 37° C. for 2 hrs
Experimental: as §1

[7] = system: WI-38 cells; assay: growth and population doubling of WI-38 cells; format: cell-based, human; conditions: 25 pM rapamycin; without rapamycin 5.18 or 5.12
Experimental: (A) WI-38 cells were treated with the indicated concentrations of rapamycin as in FIG. 7. The treatment started at passage 29. Cells entered senescence at passage 31. After 65-days in senescence, surviving cells were measured by MTT (3-(4,5-dimethylthiazol-2-yl)-2,5-diphenyltetrazolium bromide, a tetrazole) staining. The purple color of MTT generated by mitochondrial reductase was read in 570 nm by a microplate reader. The data is a representative of three independent duplica-experiments. (B) The effect of rapamycin on growth of WI-38 cells. Cells were cultured as in FIG. 7. Arrows indicate the time point when rapamycin was added. 25 pM rapamycin has little effect on growth rate, but increases the population doubling (PD) from 5.18 to 6.82. Population doublings were calculated using the following formula: PD=log(Nf/N0)/log 2, where Nf is the final cell number and N0 is the number of initially seeded cells. Data is a representative of two independent duplica-experiments. (C) The low doses of rapamycin increase protein levels of p53, p21 and pRB. WI-38 cells on the 20th day after the last split (senescence) were treated with rapamycin for 18 hrs. Cell lysates were then analyzed by Western blotting using antibodies specifically against p53, p21 or pRB.

## C=CCSSSCC=C [diallyl trisulfide]
[1]
  mitochondrial mass: increased

## CN(C)C(=N)N=C(N)N [metformin]
[2]
  myocardial infarction: can reduce myocardial infarction

## CCCCCCCCCCCCCC(=O)O[C@@H]1[C@@H](C)[C@@]2(O)[C@@H](C=C(CO)C[C@]3(O)C(=O)C(C)=C[C@@H]23)[C@@H]2C(C)(C)[C@]12OC(C)=O [TPA, 12-O-tetradecanoylphorbol 13-acetate]
[3]
  mitochondrial mass in NIH 3T3 cells: dramatically decreased the mitochondrial mass

## O=C(O[C@@H]1Cc2c(O)cc(O)cc2O[C@@H]1c1cc(O)c(O)c(O)c1)c1cc(O)c(O)c(O)c1 [EGCG, Epigallocatechin gallate]
[4]
  cell death triggered by inactivation of cdc13-1p (colony formation assay): inhibited cell death
[5]
  loss of the senescent WI-38 cells: prevented
[1]
  mitochondrial mass: increased

## S=C=Nc1ccccc1 [phenyl isothiocyanate]
[1]
  mitochondrial mass: increased

## O=CC[C@@H](O)[C@H](O)[C@H](O)CO [2-deoxyglucose, reference compound]
[4]; 200 μM added to YEPD with 2% glucose, 37° C. 22 hrs
  cell death induced by inactivation of cdc13-1p (colony formation assay): prevented cell death effectively
[5]
  loss of the senescent WI-38 cells: prevented
[1]; 12.5 μM 2-deoxyglucose
  mitochondria mass: increased mitochondria mass

## Oc1ccc(C=Cc2cc(O)cc(O)c2)cc1 [resveratrol]
[1]
  mitochondrial mass: increased

## S=C=NCc1ccccc1 [benzyl isothiocyanate]
[1]
  mitochondrial mass: increased

## O=[Se]([O-])[O-].[Na+].[Na+] [selenite, selenite (Na2SeO3)]
[4]
  cell death triggered by inactivation of cdc13-1p (colony formation assay): inhibited cell death
[1]
  mitochondrial mass: increased

## O=c1c(-c2ccc(O)cc2)coc2cc(O)cc(O)c12 [genistein]
[4]
  cell death triggered by inactivation of cdc13-1p (colony formation assay): inhibited cell death
[1]
  mitochondrial mass: increased

## CC(C)=CCC/C(C)=C/C=C/C(C)=C/C=C/C(C)=C/C=C/C=C(C)/C=C/C=C(C)/C=C/C=C(\C)CCC=C(C)C [lycopene]
[1]
  mitochondrial mass: increased

## CO[C@H]1C[C@@H]2CC[C@@H](C)[C@@](O)(O2)C(=O)C(=O)N2CCCC[C@H]2C(=O)O[C@H]([C@H](C)C[C@@H]2CC[C@@H](O)[C@H](OC)C2)CC(=O)[C@H](C)/C=C(\C)[C@@H](O)[C@@H](OC)C(=O)[C@H](C)C[C@H](C)/C=C/C=C/C=C/1C [rapamycin]
[4]; low dose of rapamycin (1 nM), after 60 hrs of incubation at 37° C.
  cell survival compared with those without treatment: at least 100 fold
[6]
  cells entered the G2/M phase of cell cycle: more than 95%
[7]
  population doubling (PD), replication potential: 6.8 and 6.82

## C=CCN=C=S [AITC, allyl isothiocyanate]
[5]
  loss of the senescent WI-38 cells: prevented
[1]
  mitochondrial mass: increased

## S=C=NCCc1ccccc1 [PEITC, phenethyl isothiocyanate]
[4]
  cell death triggered by inactivation of cdc13-1p (colony formation assay): inhibited cell death
[1]
  mitochondrial mass: increased
